In PMC6152673, “Discovery of Indeno[1,2-c]quinoline Derivatives as Potent Dual Antituberculosis and Anti-Inflammatory Agents” (Molecules : A Journal of Synthetic Chemistry and Natural …, 2017):
In brackets after ≈: the same amount, converted by molar mass.

How the values were obtained:
Vero cells = test: Vero cell viability (MTT, Promega Cell Titer 96)
[1] = test system: fMLF-activated human neutrophils (superoxide anion generation); test: Superoxide anion generation in fMLF-activated human neutrophils; type: cell-based; conditions: for IC50: Neutrophil, fMLF/cytochalasin B-activated human neutrophils, mean ± SEM (n = 3); for Inhibitory effect on superoxide anion generation (in words): fMLF-activated human neutrophils
Method: (§1) Superoxide generation and elastase release were carried out according to the procedures described previously. Neutrophils (6 × 10^5/mL) were equilibrated at 37 °C for 2 min and incubated with compounds for 5 min. Neutrophils were then activated by fMLF (100 nM) in the pretreatment of cytochalasin B (1 µg/mL for superoxide generation and 0.5 µg/mL for elastase release) for 10 min. Superoxide anion production was assayed by monitoring the superoxide dismutase-inhibitable reduction of ferricytochrome C. Elastase release was performed using MeO-Suc-Ala-Ala-Pro-Valp-nitroanilide as the elastase substrate.

[2] = test system: M. tuberculosis H37Rv (ATCC 27294); test: Anti-Mycobacterium activity, broth microdilution Microplate Alamar Blue Assay (MABA); type: cell-based; conditions: MIC = lowest concentration effecting 90% reduction in fluorescence
[3] = test system: fMLF-activated human neutrophils (neutrophil elastase release); test: Neutrophil elastase release in fMLF-activated human neutrophils; type: cell-based; conditions: for IC50: Neutrophil, fMLF/cytochalasin B-activated human neutrophils, mean ± SEM (n = 3); for Inhibitory effect on NE release (in words): fMLF-activated human neutrophils
Method: as §1

In the case of `CO/N=C1\c2ccccc2-c2c(N3CCC(O)CC3)nc3ccccc3c21` [Compound 8, (E)-6-(4-Hydroxypiperidin-1-yl)-11H-indeno[1,2-c]quinolin-11-one O-methyl Oxime], the “Survival Rate of Vero Cells @ 20 μg/mL” value (Vero cells) is reported as 91.48%, the melting point is reported as 183 to 184 °C and the IC50 [1] is reported as 2680 ± 950 nM. The “Inhibitory effect on superoxide anion generation (in words)” value [1] was “comparable anti-inflammatory activity”, the MIC [2] was greater than 20 µg/mL and the IC50 [3] was 2130 ± 920 nM. The “Inhibitory effect on NE release (in words)” value [3] was “comparable anti-inflammatory activity”.
For `O=C1c2ccccc2-c2c(N3CCCCC3)nc3ccccc3c21` [Compound 3b, 6-(Piperidin-1-yl)-11H-indeno[1,2-c]quinolin-11-one], the “Survival Rate of Vero Cells @ 20 μg/mL” value (Vero cells) was 96.18%, the melting point was 165 to 166 °C and the IC50 [1] was greater than 10000 nM. The MIC [2] was 4.93 µg/mL (≈ 15.7 µM) and the IC50 [3] was greater than 10000 nM.
In the case of `O=C1c2ccccc2-c2c(N3CCC(O)CC3)nc3ccccc3c21` [Compound 3d, 6-(4-Hydroxypiperidin-1-yl)-11H-indeno[1,2-c]quinolin-11-one], the “Survival Rate of Vero Cells @ 20 μg/mL” value (Vero cells) is reported as 91.23%, the melting point is reported as 208 °C and the IC50 [1] is reported as 1780 ± 440 nM. It also gave an MIC [2] of 2.09 µg/mL (≈ 6.33 µM) and an IC50 [3] of 2200 ± 690 nM.
In the case of `COc1ccc2c(c1)C(=O)c1c-2c(N2CCC(O)CC2)nc2ccccc12` [Compound 4d, 6-(4-Hydroxypiperidin-1-yl)-9-methoxy-11H-indeno[1,2-c]quinolin-11-one], the “Survival Rate of Vero Cells @ 20 μg/mL” value (Vero cells) is reported as 84.72%, the IC50 [1] is reported as 2820 ± 300 nM and the MIC [2] is reported as 7.74 µg/mL (≈ 21.5 µM). It also gave an IC50 [3] of 2050 ± 240 nM.
For `COc1ccc2c(c1)C(=O)c1c-2c(N2CCC(CO)CC2)nc2ccccc12` [Compound 4f, 6-[4-(Hydroxymethyl)piperidin-1-yl]-9-methoxy-11H-indeno[1,2-c]quinolin-11-one], the “Survival Rate of Vero Cells @ 20 μg/mL” value (Vero cells) was 90.26%, the melting point was 218 to 219 °C and the IC50 [1] was 1930 ± 920 nM. For the same compound, the MIC [2] was greater than 20 µg/mL and the IC50 [3] was 880 ± 300 nM.
In the case of `COc1ccc2c(c1)C(=O)c1c-2c(N2CCCC(O)C2)nc2ccccc12` (centres unmarked) [Compound 4e, 6-(3-Hydroxypiperidin-1-yl)-9-methoxy-11H-indeno[1,2-c]quinolin-11-one], the “Survival Rate of Vero Cells @ 20 μg/mL” value (Vero cells) is reported as 87.59%, the melting point is reported as 191 to 192 °C and the IC50 [1] is reported as 1890 ± 650 nM. The MIC [2] was 19.1 µg/mL (≈ 53 µM) and the IC50 [3] was 2930 ± 700 nM.
With `O=C1c2ccccc2-c2c(N3CCCC(O)C3)nc3ccccc3c21` (centres unmarked) [Compound 3e, 6-(3-Hydroxypiperidin-1-yl)-11H-indeno[1,2-c]quinolin-11-one] the “Survival Rate of Vero Cells @ 20 μg/mL” value (Vero cells) was 87.78%, the melting point was 211 to 212 °C and the IC50 [1] was 2900 ± 110 nM. For the same compound, the MIC [2] was 4.97 µg/mL (≈ 15 µM) and the IC50 [3] was 2800 ± 90 nM.
For `O=C1c2ccccc2-c2c(N3CCCC(CO)C3)nc3ccccc3c21` (centres unmarked) [Compound 3g, 6-(3-Piperidinemethano-1-yl)-11H-indeno[1,2-c]quinolin-11-one], the “Survival Rate of Vero Cells @ 20 μg/mL” value (Vero cells) was 92.25%, the melting point was 220 to 221 °C and the IC50 [1] was 2770 ± 470 nM. The MIC [2] was 3.07 µg/mL (≈ 8.91 µM) and the IC50 [3] was 2120 ± 1190 nM.
For `NNC(=O)c1ccncc1` [INH, isoniazid, reference compound], the “Survival Rate of Vero Cells @ 20 μg/mL” value (Vero cells) was 84.80% and the MIC [2] was 0.8 to 1.2 µg/mL (≈ 5.83 to 8.75 µM).
In the case of `COc1ccc2c(c1)C(=O)c1c-2c(N2CCCCC2)nc2ccccc12` [Compound 4b], the “Survival Rate of Vero Cells @ 20 μg/mL” value (Vero cells) is reported as 99.55%, the IC50 [1] is reported as greater than 10000 nM and the MIC [2] is reported as greater than 20 µg/mL. The IC50 [3] was greater than 10000 nM.
With `COc1ccc2c(c1)C(=O)c1c-2c(N2CCOCC2)nc2ccccc12` [Compound 4c] the “Survival Rate of Vero Cells @ 20 μg/mL” value (Vero cells) was 94.47%, the IC50 [1] was greater than 10000 nM and the MIC [2] was greater than 20 µg/mL. It also gave an IC50 [3] greater than 10000 nM.
For `O=C1c2ccccc2-c2c(N3CCC(CO)CC3)nc3ccccc3c21` [Compound 3f, 6-(4-Piperidinemethano-1-yl)-11H-indeno[1,2-c]quinolin-11-one], the “Survival Rate of Vero Cells @ 20 μg/mL” value (Vero cells) was 91.11%, the melting point was 223 to 224 °C and the IC50 [1] was 3370 ± 170 nM. It also gave an MIC [2] of 3.98 µg/mL (≈ 11.6 µM) and an IC50 [3] of 4500 ± 1320 nM.
For `O=C1c2ccccc2-c2c(N3CCOCC3)nc3ccccc3c21` [Compound 3c, 6-(Morpholino-1-yl)-11H-indeno[1,2-c]quinolin-11-one], the “Survival Rate of Vero Cells @ 20 μg/mL” value (Vero cells) was 91.19%, the melting point was 171 to 173 °C and the IC50 [1] was greater than 10000 nM. For the same compound, the MIC [2] was 3.12 µg/mL (≈ 9.86 µM) and the IC50 [3] was greater than 10000 nM.
In the case of `OC1CCN(c2nc3ccccc3c3c2-c2ccccc2C3)CC1` [Compound 5, 1-(11H-Indeno[1,2-c]quinolin-6-yl)piperidin-4-ol], the “Survival Rate of Vero Cells @ 20 μg/mL” value (Vero cells) is reported as 85.41%, the IC50 [1] is reported as 4020 ± 1080 nM and the “Inhibitory effect on superoxide anion generation (in words)” value [1] is reported as “weakly active”. The MIC [2] was 18 µg/mL (≈ 56.9 µM), the IC50 [3] was 5290 ± 480 nM and the “Inhibitory effect on NE release (in words)” value [3] was “weakly active”.
In the case of `O/N=C1\c2ccccc2-c2c(N3CCC(O)CC3)nc3ccccc3c21` [Compound 7, (E)-6-(4-Hydroxypiperidin-1-yl)-11H-indeno[1,2-c]quinolin-11-one Oxime], the “Survival Rate of Vero Cells @ 20 μg/mL” value (Vero cells) is reported as 84.14%, the melting point is reported as 155 to 156 °C and the IC50 [1] is reported as 830 ± 470 nM. The “Inhibitory effect on superoxide anion generation (in words)” value [1] was “comparable anti-inflammatory activity”, the MIC [2] was greater than 20 µg/mL and the IC50 [3] was 1390 ± 640 nM. The “Inhibitory effect on NE release (in words)” value [3] was “comparable anti-inflammatory activity”.
In the case of `O=C1c2ccccc2-c2c(N3CCCC3)nc3ccccc3c21` [Compound 3a, 6-(Pyrrolidin-1-yl)-11H-indeno[1,2-c]quinolin-11-one], the “Survival Rate of Vero Cells @ 20 μg/mL” value (Vero cells) is reported as 88.61%, the melting point is reported as 163 to 164 °C and the IC50 [1] is reported as greater than 10000 nM. It also gave an MIC [2] of 4.56 µg/mL (≈ 15.2 µM) and an IC50 [3] greater than 10000 nM.
In the case of `CC1(O)c2ccccc2-c2c(N3CCC(O)CC3)nc3ccccc3c21` (centres unmarked) [Compound 6, 6-(4-Hydroxypiperidin-1-yl)-11-methyl-11H-indeno[1,2-c]quinolin-11-ol], the “Survival Rate of Vero Cells @ 20 μg/mL” value (Vero cells) is reported as 89.83%, the melting point is reported as 146 to 147 °C and the IC50 [1] is reported as greater than 10000 nM. The “Inhibitory effect on superoxide anion generation (in words)” value [1] was “inactive”, the MIC [2] was greater than 20 µg/mL and the IC50 [3] was greater than 10000 nM. The “Inhibitory effect on NE release (in words)” value [3] was “inactive”.
With `COc1ccc2c(c1)C(=O)c1c-2c(N2CCCC(CO)C2)nc2ccccc12` (centres unmarked) [Compound 4g, 6-[3-(Hydroxymethyl)piperidin-1-yl]-9-methoxy-11H-indeno[1,2-c]quinolin-11-one] the “Survival Rate of Vero Cells @ 20 μg/mL” value (Vero cells) was 87.60%, the melting point was 243 to 244 °C and the IC50 [1] was 680 ± 140 nM. The MIC [2] was greater than 20 µg/mL and the IC50 [3] was 460 ± 80 nM.
In the case of `NC(=O)N/N=C1\c2ccccc2-c2c(N3CCC(O)CC3)nc3ccccc3c21` [Compound 9, (E)-2-[6-(4-Hydroxypiperidin-1-yl)-11H-indeno[1,2-c]quinolin-11-ylidene]hydrazine Carboxamide], the “Survival Rate of Vero Cells @ 20 μg/mL” value (Vero cells) is reported as 81.20%, the melting point is reported as 289 to 290 °C and the IC50 [1] is reported as 3640 ± 1430 nM. For the same compound, the MIC [2] was greater than 20 µg/mL and the IC50 [3] was greater than 10000 nM.
For `O=C(N/N=C1\c2ccccc2-c2c(N3CCC(O)CC3)nc3ccccc3c21)c1ccccc1` [Compound 11, (E)-N′-[6-(4-Hydroxypiperidin-1-yl)-11H-indeno[1,2-c]quinolin-11-ylidene]benzohydrazide], the “Survival Rate of Vero Cells @ 20 μg/mL” value (Vero cells) was 89.55%, the melting point was 258 to 259 °C and the IC50 [1] was 1670 ± 870 nM. For the same compound, the MIC [2] was 1.98 µg/mL (≈ 4.41 µM), the IC50 [3] was greater than 10000 nM and the “Inhibitory effect on NE release (in words)” value [3] was “inactive”.
For `O=C(N/N=C1\c2ccccc2-c2c(N3CCC(O)CC3)nc3ccccc3c21)c1ccncc1` [Compound 12, (E)-N′-[6-(4-Hydroxypiperidin-1-yl)-11H-indeno[1,2-c]quinolin-11-ylidene]isonicotino Hydrazide], the “Survival Rate of Vero Cells @ 20 μg/mL” value (Vero cells) was 94.25%, the melting point was 282 to 283 °C and the IC50 [1] was 1720 ± 230 nM. For the same compound, the MIC [2] was 0.96 µg/mL (≈ 2.14 µM) and the IC50 [3] was 1760 ± 490 nM.
With `NC(=S)N/N=C1\c2ccccc2-c2c(N3CCC(O)CC3)nc3ccccc3c21` [Compound 10, (E)-2-[6-(4-Hydroxypiperidin-1-yl)-11H-indeno[1,2-c]quinolin-11-ylidene]hydrazine Carbothioamide] the “Survival Rate of Vero Cells @ 20 μg/mL” value (Vero cells) was 80.28%, the melting point was 304 to 305 °C and the IC50 [1] was 2410 ± 360 nM. For the same compound, the MIC [2] was greater than 20 µg/mL and the IC50 [3] was greater than 10000 nM.
For `COc1ccc2c(c1)C(=O)c1c-2c(N2CCCC2)nc2ccccc12` [Compound 4a, 9-Methoxy-6-(pyrrolidin-1-yl)-11H-indeno[1,2-c]quinolin-11-one], the “Survival Rate of Vero Cells @ 20 μg/mL” value (Vero cells) was 89.62%, the IC50 [1] was greater than 10000 nM and the MIC [2] was 17 µg/mL (≈ 51.5 µM). It also gave an IC50 [3] greater than 10000 nM.
